From US9815883B2, “Inhibiting peptides derived from TREM-like transcript 1 (TLT-1) and uses thereof” (Institut National de la Sante et de la Recherche Medicale …, priority 2010, dated 2017) come the findings set out here.

Assay [1] relates to male Balb/c mice. Briefly: Caecal ligation and puncture (CLP) polymicrobial sepsis model. It is filed as in vivo, mouse. As to conditions: heading only; evaluation without results. As to the method:
Adult male Balb/c mice (20-23 g) were subjected to caecal ligation and puncture under isoflurane anaesthesia and were randomly grouped (n=5-10 per group) to receive a single LR17 (100 μg in 0.2 mL NaCl 0.9%), scrambled-LR17 ([…] in 0.2 mL NaCl 0.9%), or 0.2 mL NaCl 0.9% i.p. injection. After 24 hours, animals were killed under anaesthesia. Results are mean±SD. p values are *p<0.05, **p<0.01, ***p<0.001 compared with control animals.
(A-B) Adult male Balb/c mice (20-23 g) were subjected to caecal ligation and puncture under isoflurane anaesthesia and were randomly grouped (n=25-40 per group) to receive a LR17, scrambled-LR17, or 0.2 mL NaCl 0.9% i.p. injection at indicated times. Survival was monitored over 1 wk and analyzed by Log Rank test.
Male Balb/c mice (4-6 weeks) were anesthetized with isoflurane. The cecum was exposed through a 1.0 cm abdominal midline incision and subjected to a ligation of the distal half followed by one puncture with a G21 needle. A small amount of stool was expelled from the puncture to ensure patency. The cecum was replaced into the peritoneal cavity and the abdominal incision closed in two layers. After surgery, all mice were injected s.c. with 0.5 mL of 0.9% NaCl solution for fluid resuscitation. The animals were randomly grouped and treated LR17 or LR17-scrambled as control in 250 μL 0.9% NaCl solution and administered i.p. In order to determine the effect of various doses of LR17 at different times, mice were treated with 50, 100 or 200 μg of LR17 at H1 after surgery, or with 3 injections of 100 μg at 2, 6 and 24 hours or with 100 μg in one injection at 24 hours after CLP and then monitored for survival. Five additional animals per group were killed under anaesthesia at 24 h after CLP for the determination of bacterial count and cytokines levels. Peritoneal lavage fluid was obtained using 2 mL RPMI 1640 (EuroBio), and blood was collected by cardiac puncture. Concentrations of plasma cytokines were determined by ELISA (R&Dsystems). For the assessment of bacterial counts, blood and crushed spleen were plated in serial log dilutions on tryptic soy supplemented with 5% sheep blood agar plates. After plating, tryptic soy agar plates were incubated at 37° C. aerobically for 24 h and anaerobically for 48 h. Results are expressed as CFU per ml of blood or per gram of spleen.

In a further assay the test system is TREM-1 ligand (agonist). Briefly: Immunoblot revealed by mouse anti-TREM-1 mAb (TREM-1 agonist). It is filed as binding. As to conditions: FIG. 1A. From the text:
To determine whether sTLT-1 may specifically bind to the TREM-1 ligand and thus interfere with the TREM-1/TREM-1 ligand interaction, we used a specific TREM-1 agonist known to bind and activate TREM-1, mimicking TREM-1 engagement by its ligand.
In general terms: A western blot detects proteins with antibodies after separation by electrophoresis.

The test system of assay [2] is male Balb/c mice. In words: Caecal ligation and puncture (CLP) polymicrobial sepsis model. It counts as in vivo, mouse. As to conditions: LR12 in septic mice.
Assay [3] has as its system TREM-1 ligand expressed on resting or thrombin-activated human platelets. Briefly: Flow cytometry binding of FITC-labelled peptides to human platelets. As to conditions: competition with unlabelled substance. As to the method:
(B) Flow cytometry analysis of FITC-labelled LR17 (1 or 5 μg/mL) binding to TREM-1 ligand expressed on resting or thrombin-activated (5 UI/mL) human platelets is reversed by co-incubation with unlabelled LR17, sTLT-1 or LP17, a TREM-1 derived peptide.
Acid Citrate Dextrose blood samples were centrifuged (100 g, 10 min) to obtain Platelet-Rich Plasma. PRP was then centrifuged (550 g, 10 min) over a 36% (wt/vol) BSA gradient and platelets collected from the interphase before being washed in Tyrode's salts buffer (Sigma-Aldrich) supplemented with 5 mM EGTA. For activation, platelets were incubated for 30 minutes with 5 U/mL thrombin (Sigma-Aldrich) or 1 μg/mL E. Coli LPS (0111:B4, Sigma-Aldrich) at 37° C. and subsequently fixed with 2% (wt/vol) paraphormaldehyde (PFA, Sigma-Aldrich). Residual PFA was removed by two additional washing steps in Tyrode buffer. Activation was assessed by anti-CD62P (Beckman Coulter).
Isolated cells (neutrophils, monocytes or platelets) were blocked for aspecific binding with 10% human Ig (Sigma-Aldrich) for 1 hour on ice. Cells were incubated with recombinant soluble FITC-labelled TLT-1-peptides, FITC-labelled LP17 (or corresponding FITC-labelled scrambled peptides), PE-labelled anti-TREM-1 mAb (R&Dsystems), CD62P-FITC, CD66b-PE, CD45-PE, CD14-FITC (all from Beckman Coulter)
(Flow cytometry measures light scatter and fluorescence of single cells or particles in a stream.)

Another assay deals with human neutrophils. In words: Neutrophil phagocytosis and oxidative burst (Phagotest, Bursttest). It counts as cell-based. As to the method:
Data (mean±SD) are representative of 6 different experiments.
The quantitative determination of neutrophil phagocytosis and oxidative burst was performed by flow cytometry using the Phagotest and the Bursttest (Orpegen Pharma, Heidelberg, Germany) following the manufacturers' recommendations. A FITC-labelled opsonized E. coli was used to determine the general phagocytic activity (ingestion of one or more bacteria per cell) and the individual cellular phagocytic activity (number of bacteria per cell). For evaluation of oxidative burst activity, unlabeled opsonized E. coli, fMLP, PMA LPS and activated- or non-activated-platelets (30:1) were used as stimulants and DCFDA as a fluoregenic substrate (Invitrogen) accordingly with manufacturers' instructions.

With “EDAGEY (listed as Homo sapiens) [LR6-2, 6 amino-acids derived from LR17]”, in the assay with male Balb/c mice [1], the “protection against polymicrobial sepsis” value is listed as “Protect Mice Against Polymicrobial Sepsis”.

For “GAEREVCMDEYGALQDG (listed as Homo sapiens) [LR17-scrambled, control peptide, reference compound]”, in the assay with TREM-1 ligand (agonist), the “binding to the TREM-1 ligand (TREM-1 agonist, anti-TREM-1 mAb)” value is reported as “not”.

Regarding “GEYGCM (listed as Homo sapiens) [LR6-3, 6 amino-acids derived from LR17]”, the “protection against polymicrobial sepsis” value in the assay with male Balb/c mice [1] was “Protect Mice Against Polymicrobial Sepsis”.

For the molecule “LQEEDA (listed as Homo sapiens) [LR6-1, 6 amino-acids derived from LR17]”, the “protection against polymicrobial sepsis” value with male Balb/c mice [1] is recorded as “Protect Mice Against Polymicrobial Sepsis”.

Regarding “LQEEDAGEYGCM (listed as Homo sapiens) [LR12, N-terminal 12 amino-acids from LR17]”, the “coagulation disorders (platelet count)” value in the assay on male Balb/c mice [2] (FIG. 7c) was “significant protection”. The survival rate result with male Balb/c mice [2] (FIG. 7g) was “improved survival rate”. Besides, the “organ dysfunction (lung histopathology)” value in the assay with male Balb/c mice [2] (FIG. 7d) was “significant protection”. Moreover, in the assay on male Balb/c mice [2] (FIGS. 7a and b), the “systemic, broncho-alveolar and organ inflammation” value was “significant protection”.

B1: sTLT-1: soluble TLT-1 (TREM-like transcript 1), recombinant (protein)
chain: QGIVGSLPEVLQAPVGSSILVQCHYRLQDVKAQKVWCRFLPEGCQPLVSSAVDRRAPAGRRTFLTDLGGGLLQVEMVTLQEEDAGEYGCMVDGARGPQILHRVSLNILPPEEEEETHKIGSLAENAFSDPAGSANPLEPSQDEKSIP
Regarding B1, in assay [3], the “effect of co-incubation on FITC-labelled LP17 binding to platelets” value was “decreased” and the “effect of co-incubation on FITC-labelled LR17 binding to platelets” value was “reversed”. For the same molecule, the “binding to the TREM-1 ligand (TREM-1 agonist, anti-TREM-1 mAb)” value with TREM-1 ligand (agonist) is listed as “able to bind the TREM-1 ligand”. Further, the “neutrophils' phagocytic properties” value with human neutrophils (E. coli) is given as “did not alter”. In addition, the “PMA- or fMLP-induced oxidative burst” value in the assay with human neutrophils (not shown) is recorded as “no action”.
